Data as given in patent US12227501B2, “3-amino-2-[2-(acylamino)pyridin-4-yl]-1,5,6,7-tetrahydro-4h-pyrrolo[3,2-c]pyridin-4-one as CSNK1 inhibitors” (Bayer Aktiengesellschaft, priority 2019, dated 2025).

Tests used:
Type in all cases: biochemical
[1] = target: T1, human CSNK1A1 (Homo sapiens (Human), UniProt P48729); test: CSNK1A1 High ATP Assay (ADP-Glo, 1 mM ATP); details: read-out: CSNK1A1 high ATP assay IC50 [mol/l] (median)
In short: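 GST-tagged full-length human CSNK1A1 from baculovirus-infected insect cells (typically about 0.4 ng/μL), pre-incubated with compound 15 min at 22 °C. Reaction with biotinylated peptide biotin-Ahx-KRRRAL-pS-VASLPGL at 1 mM ATP. ADP formed read by ADP-Glo luminescence.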

[2] = target: human CSNK1D (Homo sapiens (Human), UniProt P48730); test: CSNK1D Assay (ADP-Glo, 1 μM ATP); details: read-out: CSNK1D IC50 [mol/l] (median)
In short: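 GST-tagged full-length human CSNK1D from baculovirus-infected insect cells, typically ~0.5 ng/μL, with biotinylated peptide substrate and 1 μM ATP in HEPES pH 7.5 buffer. Compound is preincubated with enzyme 15 min at 22 °C. ADP formed is quantified by ADP-Glo luminescence.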

[3] = target: T1, human CSNK1A1; test: CSNK1A1 Assay 2 (ADP-Glo, 1 μM ATP); details: substrate biotin-Ahx-KRRRAL-pS-VASLPGL, read-out: CSNK1A1 Assay 2 IC50 [mol/l] (median)
In short: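 Full-length human CSNK1A1 as an N-terminal GST fusion (baculovirus/insect cells) with biotinylated peptide substrate biotin-Ahx-KRRRAL-pS-VASLPGL and 1 μM ATP, in HEPES pH 7.5 buffer. Compounds were pre-incubated with enzyme (~0.0375 ng/μL) for 15 min at 22 °C. Generated ADP was read by ADP-Glo luminescence as the activity measure.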

[4] = target: wild-type Epidermal Growth Factor Receptor (EGFR) (Homo sapiens (Human), UniProt P00533); test: WT-EGFR Kinase Assay (TR-FRET, 2 mM ATP); details: read-out: EGFR Wildtyp- 2 mM ATP IC50 [mol/l] (median)
wild-type Epidermal Growth Factor Receptor (EGFR), sequence (P00533 669-1210): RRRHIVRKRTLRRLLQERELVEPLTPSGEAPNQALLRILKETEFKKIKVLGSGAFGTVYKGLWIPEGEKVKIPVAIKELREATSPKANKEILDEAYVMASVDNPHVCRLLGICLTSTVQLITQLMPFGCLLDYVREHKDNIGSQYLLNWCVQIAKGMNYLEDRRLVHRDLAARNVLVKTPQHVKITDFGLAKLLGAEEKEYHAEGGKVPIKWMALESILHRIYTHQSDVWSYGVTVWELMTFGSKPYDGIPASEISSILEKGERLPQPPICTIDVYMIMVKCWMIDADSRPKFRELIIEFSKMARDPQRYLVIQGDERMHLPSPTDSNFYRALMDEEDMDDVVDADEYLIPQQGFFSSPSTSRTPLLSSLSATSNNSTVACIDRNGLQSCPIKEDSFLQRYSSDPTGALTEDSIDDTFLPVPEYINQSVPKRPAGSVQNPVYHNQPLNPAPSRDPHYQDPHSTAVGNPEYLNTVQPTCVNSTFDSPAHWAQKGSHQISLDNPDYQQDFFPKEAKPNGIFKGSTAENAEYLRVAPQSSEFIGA

human CSNK1D, sequence (P48730 whole entry): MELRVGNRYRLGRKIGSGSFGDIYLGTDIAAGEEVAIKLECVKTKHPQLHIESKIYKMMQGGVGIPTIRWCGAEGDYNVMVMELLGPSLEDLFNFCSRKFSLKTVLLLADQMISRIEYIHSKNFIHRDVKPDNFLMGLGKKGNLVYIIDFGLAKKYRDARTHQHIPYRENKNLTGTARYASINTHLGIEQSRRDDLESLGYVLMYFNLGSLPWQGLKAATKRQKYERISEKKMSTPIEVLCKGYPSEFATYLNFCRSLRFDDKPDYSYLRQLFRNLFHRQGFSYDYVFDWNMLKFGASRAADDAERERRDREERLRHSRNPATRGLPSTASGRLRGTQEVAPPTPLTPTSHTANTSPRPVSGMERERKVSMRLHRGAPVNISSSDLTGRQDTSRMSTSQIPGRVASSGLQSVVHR
T1 sequence (P48729 whole entry): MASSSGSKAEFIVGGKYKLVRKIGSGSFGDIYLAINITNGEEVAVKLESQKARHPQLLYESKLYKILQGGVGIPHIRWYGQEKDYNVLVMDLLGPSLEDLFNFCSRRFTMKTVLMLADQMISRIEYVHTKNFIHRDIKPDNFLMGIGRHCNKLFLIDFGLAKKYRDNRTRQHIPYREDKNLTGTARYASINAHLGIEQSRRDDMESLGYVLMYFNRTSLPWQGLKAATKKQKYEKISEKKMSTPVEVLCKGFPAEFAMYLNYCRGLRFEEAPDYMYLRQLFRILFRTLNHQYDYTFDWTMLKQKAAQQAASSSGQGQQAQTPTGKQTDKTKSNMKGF

Row | Compound | IC50 [1] [nM] | IC50 [2] [nM] | IC50 [3] [nM] | IC50 [4] [nM]
1 | CN1CCc2[nH]c(-c3ccnc(NC(=O)Cc4cccnc4)c3)c(Nc3ccccc3)c2C1=O [Example 67, N-[4-(3-anilino-5-methyl-4-oxo-4,5,6,7-tetrahydro-1H-pyrrolo[3,2-c]pyridin-2-yl)pyridin-2-yl]-2-(pyridin-3-yl)acetamide] | 44.6 | 3.79 | 2.41 | 997
2 | Cc1ccc(CC(=O)Nc2cc(-c3[nH]c4c(c3Nc3ccccc3)C(=O)N(C)CC4)ccn2)cc1 [Example 68, N-[4-(3-anilino-5-methyl-4-oxo-4,5,6,7-tetrahydro-1H-pyrrolo[3,2-c]pyridin-2-yl)pyridin-2-yl]-2-(4-methylphenyl)acetamide] | 74.2 | 3.63 | 3.2 | 2100
3 | CN1CCc2[nH]c(-c3ccnc(NC(=O)Cc4cccc(S(C)(=O)=O)c4)c3)c(Nc3ccccc3)c2C1=O [Example 69, N-[4-(3-anilino-5-methyl-4-oxo-4,5,6,7-tetrahydro-1H-pyrrolo[3,2-c]pyridin-2-yl)pyridin-2-yl]-2-[3-(methanesulfonyl)phenyl]acetamide] | 81.7 | 4.68 | 3.13 | 510
4 | CN1CCc2[nH]c(-c3ccnc(NC(=O)Cc4ccc(C(F)F)cc4)c3)c(Nc3ccccc3)c2C1=O [Example 78, N-[4-(3-anilino-5-methyl-4-oxo-4,5,6,7-tetrahydro-1H-pyrrolo[3,2-c]pyridin-2-yl)pyridin-2-yl]-2-[4-(difluoromethyl)phenyl]acetamide] | 95.5 | 7.93 | 2.95 | 3090
5 | CN1CCc2[nH]c(-c3ccnc(NC(=O)Cc4ccc(F)cc4F)c3)c(Nc3ccccc3)c2C1=O [Example 82, N-[4-(3-anilino-5-methyl-4-oxo-4,5,6,7-tetrahydro-1H-pyrrolo[3,2-c]pyridin-2-yl)pyridin-2-yl]-2-(2,4-difluorophenyl)acetamide] | 162 | 5.52 | 2.26 | 1150
6 | CN1CCc2[nH]c(-c3ccnc(NC(=O)Cc4ccc(F)c(F)c4)c3)c(Nc3ccccc3)c2C1=O [Example 83, N-[4-(3-anilino-5-methyl-4-oxo-4,5,6,7-tetrahydro-1H-pyrrolo[3,2-c]pyridin-2-yl)pyridin-2-yl]-2-(3,4-difluorophenyl)acetamide] | 61.4 | 7.3 | 3.03 | 2920
7 | Cc1cc(CC(=O)Nc2cc(-c3[nH]c4c(c3Nc3ccccc3)C(=O)N(C)CC4)ccn2)ccn1 [Example 85, N-[4-(3-anilino-5-methyl-4-oxo-4,5,6,7-tetrahydro-1H-pyrrolo[3,2-c]pyridin-2-yl)pyridin-2-yl]-2-(2-methylpyridin-4-yl)acetamide] | 26.5 | 3.36 | 1.78 | 937
8 | CC1(C)Cc2[nH]c(-c3ccnc(NC(=O)Cc4ccc(F)cc4)c3)c(Nc3ccccc3F)c2C(=O)N1 [Example 86, N-{4-[3-(2-fluoroanilino)-6,6-dimethyl-4-oxo-4,5,6,7-tetrahydro-1H-pyrrolo[3,2-c]pyridin-2-yl]pyridin-2-yl}-2-(4-fluorophenyl)acetamide] | 110 | 9.48 | 4.44 | 6470
9 | O=C(Cc1ccc(F)cc1)Nc1cc(-c2[nH]c3c(c2Nc2cccc(F)c2Cl)C(=O)NCC3)ccn1 [Example 87, N-{4-[3-(2-chloro-3-fluoroanilino)-4-oxo-4,5,6,7-tetrahydro-1H-pyrrolo[3,2-c]pyridin-2-yl]pyridin-2-yl}-2-(4-fluorophenyl)acetamide] | 64.7 | 6.02 | 2.57 | 158
10 | CC1(C)Cc2[nH]c(-c3ccnc(NC(=O)Cc4ccc(F)cc4)c3)c(Nc3cccc(F)c3Cl)c2C(=O)N1 [Example 112, N-{4-[3-(2-chloro-3-fluoroanilino)-6,6-dimethyl-4-oxo-4,5,6,7-tetrahydro-1H-pyrrolo[3,2-c]pyridin-2-yl]pyridin-2-yl}-2-(4-fluorophenyl)acetamide] | 167 | 8.41 | 6.69 | 3430
